Consider 7 compounds from patent publication US5880116A, “Use of celastrol to treat alzheimer's disease” (Neurocal International, priority 1996, dated 1999).

Assay [1] has as its system rats (psychomotor coordination). The assay is described as follows: Psychomotor coordination (PMC) in rota-rod apparatus. The conditions noted are these: for PMC: Psychomotor coordination: N = 6, mean ± SD. Type of assay: in vivo, rat (female Sprague-Dawley). As for the experimental part:
(§1) Celastrol or vehicle was administered to rats as described below. Female Sprague-Dawley rats (obtained from Santiago University, Santiago de Compostela, Spain) were about 3 months old and weighed 200-250 g. The animals were maintained under standard conditions at the Euroespes Institute laboratory facilities.
(§2) The celastrol formulation was purchased in China in the form of pills under the name of "Leigongtengpian." The dose is expressed as the content of celastrol. The celastrol was dissolved in DMSO (35 μg/mL) and then adjusted to the appropriate concentration with 0.9% saline. Doses of 1.4, 7 and 35 μg/kg were administered intraperitoneally (i.p.) in a total injection volume of 2 ml/kg.
At one hour after treatment, psychomotor coordination (PMC) was evaluated in a rota-rod apparatus (Letica Scientifiic Instruments, Barcelona, Spain) which consists of a roller turning at a constant pre-selected velocity (4-40 rpm) or at an increasing velocity with constant acceleration (for example, from 4 to 40 rpm in 300 seconds), and four digital counters that are stopped when the rat falls from the rod and lowers a pedal. In this test, the animals ran on a rod with constant acceleration until they fell off because they are unable to run at the necessary velocity to maintain equilibrium. Generally, there are two main causes of low performance in this test 1) myorelaxation and 2) balance disorders, as in some vestibular and brain lesions. Improved performance is seen with drugs improving muscular strength, motor coordination and/or balance. Mean running time of five consecutive trials was taken as an index of PMC.
(§3) Data were statistically analyzed by the ANOVA and the Duncan test for multiple comparisons. Results were expressed as mean ± standard deviation (SD) in tables and as mean ± standard error of […] (SEM) in figures.

For the next assay, the system named is splenic lymphocytes. The conditions noted are these: dose dependent; cited from earlier work.
Assay [2] deals with AA rats with experimental adjuvant arthritis. The note with it: rat, in vivo; cited from earlier work.
The test system of assay [3] is rats (psychomotor activity). The assay can be described thus: Open-field psychomotor activity (PMA, VA, FF) in OUCEM-86 electronic maze. Format: in vivo, rat (female Sprague-Dawley). The conditions noted are these: for PMA: Psychomotor activity: N = 6, mean ± SD, 30 min recording. As for the experimental part:
as §1, §2
Immediately after injection, the animals were placed in the Osaka University Computerized Electronic Maze system (OUCEM-86, obtained from Bio Medica, Ltd., Osaka, Japan). The system, as previously described by Cacabelos et al (Prog. Med. 7:763-773, 1987), is integrated with the following components: A Programmable Electronic Platform (PEP) which measures 62 cm×62 cm and is equipped with 48 photo beam sensors (OPX-T30) to detect the three-dimensional position (four-footed, two-footed or rearing, and jumping) of the test animal; a Programming Panel (PP) (Model BECM-0064) for paradigm simulation; a Shock Generator Scrambler (SGS)(Model BSG-1065) to apply continuous or discontinuous electric currents to the PEP; a Control Station interface device to automatically computerize behavioral parameters; and a Computerized System (NEC PC-9801F) for data processing and experimental setting.
Tests were conducted in an open-field paradigm (where the rat can move freely) as previously described (Cacabelos et al. 1987) where psychomotor activity (PMA) was automatically recorded. Total PMA is the sum of horizontal and vertical movements. Horizontal movements are four-footed movements (FF). Vertical activity (VA) includes jumping and rearing (or two-footed) movements. The temporal profile of PMA during the 30 minutes of recording was also studied. PMA, FF and VA were expressed as total inputs/outputs (I/O). In general, increases in PMA, mainly in VA, are observed in situations of stress. A global increase in PMA is also found under treatment with stimulants and in rats with brain cholinergic deficits. Conversely, decreases in PMA are typical of sedative drugs, for instance.
as §3

The subject of another assay is splenic cells. The conditions noted are these: cited from earlier work.
Another assay has as its system ICR inbred mice. The conditions noted are these: 1-3 mg/kg i.p. daily; cited from earlier work.
The conditions of assay [4]: in words; cited from earlier work.
Another assay has as its system peritoneal macrophages. The note with it: dose dependent; cited from earlier work.
For assay [5], the system named is rats (passive avoidance learning). The assay can be described thus: Passive avoidance behavior (PAB) learning, fixed-ratio maze paradigm. Type of assay: in vivo, rat (female Sprague-Dawley). The note with it: for Av: number of avoidances during 10 trials / La: mean latency time per trial: N = 6, mean ± SD. As for the experimental part: as §1, §2
Two hours after treatment, rats were tested for passive avoidance behavior in a PAB fixed-ratio maze paradigm, in which they learned to stay on a neutral platform (18×18 cm) in order to avoid a continuous electric footshock in the surrounding area during 10 trials (30 seconds each). The inter-trial interval was 30 seconds. The number of complete avoidances during 10 trials (Av; successful trials in which rat remains in the neutral area the entire 30-second period) and the latency per trial (La; time spent in the neutral platform before leaving it in a trial) were taken as learning indices. The number of avoidances represents a yes/no or discontinuous variable reflecting learning ability of the rats. In general, good learners perform more avoidances because they need fewer trials to learn to avoid footshock. Latency is a continuous variable measuring the time the rat is on the neutral platform without receiving footshock. Rats having the best memory or learning capacity spend more time on the neutral area. Therefore, latency is also an index of learning ability. Finally, when a drug increases the number of avoidances and mean trial latency in this paradigm, it means that this drug improves learning and memory function.
as §3

A further assay relates to agitation and aggression. The note with it: in vivo; cited from earlier work.
Assay [6] deals with patients clinically diagnosed with early AD. The note with it: six months; cited from earlier work.
Another assay deals with AD patients. The note with it: file history of US 5,192,753; cited from earlier work.
In another assay the test system is patients with AD. The note with it: a subgroup of patients with AD; cited from earlier work.
[7] abbreviates: 1.4 μg/kg i.p., 2 hours after treatment.
Setting [8] is: 7.0 μg/kg i.p., * p < 0.05 vs control (0.0).

Regarding `CC1=C(O)C(=O)C=C2C1=CC=C1[C@@]2(C)CC[C@@]2(C)[C@@H]3C[C@](C)(C(=O)O)CC[C@]3(C)CC[C@]12C` [Celastrol], the “PMC: Psychomotor coordination” value in assay [1] (1.4 μg/kg i.p., 1 hour after treatment) turned out to be 99.4 ± 19.2 sec/trial; in assay [1] (7.0 μg/kg i.p., ** p < 0.01 vs control (0.0)), 126.3 ± 37.6 sec/trial; in assay [1] (35.0 μg/kg i.p., 1 hour after treatment), 106.5 ± 21.3 sec/trial. In addition, the “PMC, significance of difference” value in [1] (7 μg group) was “reached significance”. Besides, the “PMC (FIG. 14), in words” value in assay [1] (1.4, 7 and 35 μg treatment groups vs no-treatment group) was “all scored better than the no-treatment group”. In [1] (i.p.), the “dose of maximum effect on PMC” value was determined as 7 µg/kg. For the same compound, in the assay with splenic lymphocytes, the “Con A-induced IL-2 production” value was “decreased”. In [2], the joint edema result is “reduced joint edema”. Further, the “lipid-peroxidation and free radical formation” value in assay [2] was “inhibition of lipid-peroxidation and free radical formation”. For the same compound, the “PMA vs untreated group, in words” value in assay [3] (1.4 μg group, significance not reached) is recorded as “higher than for the untreated group”. Further, the “PMA: Psychomotor activity” value in assay [3] (1.4 μg/kg i.p.) worked out at 3011 ± 1185 I/O; in [3] (7.0 μg/kg i.p.) it was 2200 ± 1203 I/O; in assay [3] (35.0 μg/kg i.p.) it was 1637 ± 796 I/O. Moreover, the “four-footed (FF) activity (FIG. 12), in words” value in assay [3] (1.4 and 7 μg groups) is given as “improved somewhat”. Further, in assay [3] (1.4 and 7 μg treatment groups), the “PMA (total activity, FIG. 10), in words” value is listed as “fared somewhat better”. In [3] (1.4 and 7 μg treatment groups vs no-treatment group), the “vertical activity (VA, FIG. 11), in words” value is “fared somewhat better than the no-treatment group”. Besides, the “PMA over the thirty minute test interval (FIG. 13), in words” value in [3] (all treatment groups) was “a general trend of decreasing activity during the test period”. For the same compound, in [3] (i.p.), the “dose of maximum effect on PMA” value is 1.4 µg/kg. In the assay on splenic cells (PHA, Con A, LPS and PWM), the “concentration of optimal effects on mitogen-induced splenic cell proliferation” value was 0.1 µg/mL. The “proliferation of splenic cells induced by mitogens PHA, Con A, LPS and PWM” value in the assay with splenic cells (in words) is recorded as “inhibited proliferation”. In addition, the antibody formation result in the assay on ICR inbred mice is given as “reduced antibody formation very significantly”. Further, in the assay on ICR inbred mice, the “circulating immune complex levels” value is “decreased circulating immune complex levels”. Also, the serum complement entry in the assay with ICR inbred mice is given as “increased serum complement”. For the same compound, the insecticidal activity result in assay [4] is given as “insecticidal inert”. For the same compound, in the assay with peritoneal macrophages, the “LPS-induced IL-1 production” value is “decreased”. The “Av: number of avoidances during 10 trials” value in [5] (setting [7]) is 4.3 ± 2.1 n°; in assay [5] (setting [8]), 5.1 ± 1.8 n°; in assay [5] (35.0 μg/kg i.p., * p < 0.05 vs control (0.0)), 5.0 ± 1.4 n°. The “La: mean latency time per trial” value in assay [5] (setting [7]) is 18.3 ± 5.2 s; in [5] (setting [8]), 20.3 ± 2.8 s; in assay [5] (35.0 μg/kg i.p., 2 hours after treatment), 18.8 ± 4.6 s. Further, the “Av, significance of difference” value in [5] (7 μg group) was “reached significance”. Further, the “La, significance of difference” value in assay [5] (7 μg group) and in [5] (35 μg group) was “reached significance” in each case. Moreover, in assay [5] (7.0 μg/kg treatment group), the “latency time on the neutral platform (FIG. 16), in words” value was “learned significantly more quickly to stay on the platform and avoid the shock”. Besides, the “numbers of complete avoidances during 10 trials (FIG. 15), in words” value in assay [5] (7 and 35 μg treatment groups vs no-treatment group) was “scored significantly higher”. Moreover, the “dose of maximum effect on PAB scores” value in assay [5] (i.p.) worked out at 7 µg/kg.
For the compound `CC(C)NCC(O)COc1cccc2ccccc12` (stereo not shown) [Propranolol], the agitation and aggression result in the assay on agitation and aggression is “reported to help reduce agitation and aggression”.
`O=C1CC2(CCCC2)CC(=O)N1CCCCN1CCN(c2ncccn2)CC1` [buspirone]: the agitation and aggression entry in the assay on agitation and aggression was “reported to help reduce agitation and aggression”.
For the compound `COc1ccc2c(c1)c(CC(=O)O)c(C)n2C(=O)c1ccc(Cl)cc1` [indomethacin], in assay [6], the ADAS result is recorded as “only slight decrements”, the BNT entry is reported as “slight improvement”, the MMSE entry is recorded as “almost no change” and the TT entry is “only slight decrements”.
As to `CC(C)NCC(O)COc1cccc2[nH]ccc12` (stereo not shown) [pindolol], in the assay on agitation and aggression, the agitation and aggression result was “reported to help reduce agitation and aggression”.
As for `C[C@]12C=CC(=O)C=C1CC[C@@H]1[C@@H]2C(=O)C[C@@]2(C)[C@H]1CC[C@]2(O)C(=O)CO` [prednisone], the “effect in AD patients” value in the assay on AD patients was “no effect”.
As to `Nc1c2c(nc3ccccc13)CCCC2` [tacrine], the “cognitive and functional measures” value in the assay with patients with AD was “improvement”.
